Experimental data: US9738660B2, “Selective inhibitors for protein kinases and pharmaceutical composition and use thereof” (National Chiao Tung University, priority 2014, dated 2017)
Like-named read-outs stand apart in the source and are kept apart here.

How the values were obtained:
Assay in all cases: Kinase Profiler, residual kinase activity
Assay type in all cases: biochemical
Conditions in all cases: read-out: percentage of the remaining kinase activity
DAPK1 = DAPK1 (Homo sapiens, UniProt P53355)
Description: (§1) Kinase Profiler services provided by […]. (http://www.reactionbiology.com) were used to analyze the data of the 9 type-S protein kinase inhibitors against the 40 types of protein kinases.

IRAK4 = target: T1, IRAK4 (Homo sapiens, UniProt Q9NWZ3)
T1 sequence (Q9NWZ3 1-460): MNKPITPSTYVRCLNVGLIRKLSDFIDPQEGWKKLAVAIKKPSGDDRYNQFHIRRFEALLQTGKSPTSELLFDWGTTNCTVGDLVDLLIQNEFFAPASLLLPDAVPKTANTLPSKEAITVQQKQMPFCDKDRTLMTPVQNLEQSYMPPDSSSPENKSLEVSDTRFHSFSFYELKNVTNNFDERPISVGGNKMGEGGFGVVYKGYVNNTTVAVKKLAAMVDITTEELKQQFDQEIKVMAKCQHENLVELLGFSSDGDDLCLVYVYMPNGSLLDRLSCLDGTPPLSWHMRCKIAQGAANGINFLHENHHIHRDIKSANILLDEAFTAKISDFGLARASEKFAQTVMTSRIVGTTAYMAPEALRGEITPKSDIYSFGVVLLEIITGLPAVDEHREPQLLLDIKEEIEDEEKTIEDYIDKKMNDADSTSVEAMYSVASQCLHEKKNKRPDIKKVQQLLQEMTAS
Description: as §1

JAK2 = JAK2 (Homo sapiens, UniProt O60674)
Description: as §1

LIMK1 = LIMK1 (Homo sapiens, UniProt P53667)
Description: as §1

MERTK = target: T2, MERTK (Homo sapiens, UniProt Q12866)
T2 sequence (Q12866 21-999): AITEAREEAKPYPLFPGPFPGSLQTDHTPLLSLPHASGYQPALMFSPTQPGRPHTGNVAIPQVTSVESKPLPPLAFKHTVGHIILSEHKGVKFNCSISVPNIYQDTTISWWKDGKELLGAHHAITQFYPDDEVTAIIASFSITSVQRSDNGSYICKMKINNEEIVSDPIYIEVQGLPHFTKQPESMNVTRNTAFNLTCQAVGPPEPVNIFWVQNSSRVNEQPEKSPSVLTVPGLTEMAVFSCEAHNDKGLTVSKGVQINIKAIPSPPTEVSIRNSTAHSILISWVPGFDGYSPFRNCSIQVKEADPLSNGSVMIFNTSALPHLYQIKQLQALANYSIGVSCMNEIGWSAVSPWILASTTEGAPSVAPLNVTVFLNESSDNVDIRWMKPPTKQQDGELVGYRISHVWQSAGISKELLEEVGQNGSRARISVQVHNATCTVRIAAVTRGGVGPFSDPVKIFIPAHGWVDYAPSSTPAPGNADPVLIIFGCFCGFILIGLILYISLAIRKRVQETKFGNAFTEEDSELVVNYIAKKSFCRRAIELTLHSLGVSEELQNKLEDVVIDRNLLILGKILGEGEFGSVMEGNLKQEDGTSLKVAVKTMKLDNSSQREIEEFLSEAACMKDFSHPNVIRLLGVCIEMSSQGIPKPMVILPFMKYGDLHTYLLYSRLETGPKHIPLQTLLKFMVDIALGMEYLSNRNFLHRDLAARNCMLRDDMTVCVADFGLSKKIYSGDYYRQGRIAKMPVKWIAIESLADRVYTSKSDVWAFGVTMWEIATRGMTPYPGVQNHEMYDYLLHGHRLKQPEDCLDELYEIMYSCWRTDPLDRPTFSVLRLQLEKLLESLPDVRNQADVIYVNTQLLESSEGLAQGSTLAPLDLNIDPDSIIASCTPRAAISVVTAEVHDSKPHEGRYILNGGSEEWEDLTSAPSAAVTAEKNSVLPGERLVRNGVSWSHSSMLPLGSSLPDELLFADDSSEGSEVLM
Description: as §1

RPS6KA5 = target: T3, RPS6KA5 (Homo sapiens, UniProt O75582)
T3 construct: purchased Research Biology Corp. (http://www.reactionbiology.com)
Description: as §1

STK16 = target: T4, STK16 (Homo sapiens, UniProt O75716)
T4 construct: purchased Research Biology Corp. (http://www.reactionbiology.com)
Description: as §1

STK4 = target: T5, STK4 (Homo sapiens, UniProt Q13043)
T5 construct: purchased Research Biology Corp. (http://www.reactionbiology.com)
T5 sequence (Q13043 1-487): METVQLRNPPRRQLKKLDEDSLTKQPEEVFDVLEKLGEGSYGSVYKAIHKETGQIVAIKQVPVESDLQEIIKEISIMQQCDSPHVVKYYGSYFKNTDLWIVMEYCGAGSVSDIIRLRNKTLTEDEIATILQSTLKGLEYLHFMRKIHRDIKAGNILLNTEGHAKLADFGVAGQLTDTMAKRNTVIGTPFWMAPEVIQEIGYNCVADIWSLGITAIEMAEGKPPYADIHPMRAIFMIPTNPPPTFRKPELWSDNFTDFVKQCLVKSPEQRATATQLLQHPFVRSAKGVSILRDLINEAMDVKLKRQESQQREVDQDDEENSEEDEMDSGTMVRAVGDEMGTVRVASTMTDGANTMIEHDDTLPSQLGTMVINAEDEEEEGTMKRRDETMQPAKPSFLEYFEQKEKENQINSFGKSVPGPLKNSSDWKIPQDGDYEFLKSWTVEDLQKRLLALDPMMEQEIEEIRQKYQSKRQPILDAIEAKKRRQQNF
Description: as §1

Chain of DAPK1 (P53355 whole entry): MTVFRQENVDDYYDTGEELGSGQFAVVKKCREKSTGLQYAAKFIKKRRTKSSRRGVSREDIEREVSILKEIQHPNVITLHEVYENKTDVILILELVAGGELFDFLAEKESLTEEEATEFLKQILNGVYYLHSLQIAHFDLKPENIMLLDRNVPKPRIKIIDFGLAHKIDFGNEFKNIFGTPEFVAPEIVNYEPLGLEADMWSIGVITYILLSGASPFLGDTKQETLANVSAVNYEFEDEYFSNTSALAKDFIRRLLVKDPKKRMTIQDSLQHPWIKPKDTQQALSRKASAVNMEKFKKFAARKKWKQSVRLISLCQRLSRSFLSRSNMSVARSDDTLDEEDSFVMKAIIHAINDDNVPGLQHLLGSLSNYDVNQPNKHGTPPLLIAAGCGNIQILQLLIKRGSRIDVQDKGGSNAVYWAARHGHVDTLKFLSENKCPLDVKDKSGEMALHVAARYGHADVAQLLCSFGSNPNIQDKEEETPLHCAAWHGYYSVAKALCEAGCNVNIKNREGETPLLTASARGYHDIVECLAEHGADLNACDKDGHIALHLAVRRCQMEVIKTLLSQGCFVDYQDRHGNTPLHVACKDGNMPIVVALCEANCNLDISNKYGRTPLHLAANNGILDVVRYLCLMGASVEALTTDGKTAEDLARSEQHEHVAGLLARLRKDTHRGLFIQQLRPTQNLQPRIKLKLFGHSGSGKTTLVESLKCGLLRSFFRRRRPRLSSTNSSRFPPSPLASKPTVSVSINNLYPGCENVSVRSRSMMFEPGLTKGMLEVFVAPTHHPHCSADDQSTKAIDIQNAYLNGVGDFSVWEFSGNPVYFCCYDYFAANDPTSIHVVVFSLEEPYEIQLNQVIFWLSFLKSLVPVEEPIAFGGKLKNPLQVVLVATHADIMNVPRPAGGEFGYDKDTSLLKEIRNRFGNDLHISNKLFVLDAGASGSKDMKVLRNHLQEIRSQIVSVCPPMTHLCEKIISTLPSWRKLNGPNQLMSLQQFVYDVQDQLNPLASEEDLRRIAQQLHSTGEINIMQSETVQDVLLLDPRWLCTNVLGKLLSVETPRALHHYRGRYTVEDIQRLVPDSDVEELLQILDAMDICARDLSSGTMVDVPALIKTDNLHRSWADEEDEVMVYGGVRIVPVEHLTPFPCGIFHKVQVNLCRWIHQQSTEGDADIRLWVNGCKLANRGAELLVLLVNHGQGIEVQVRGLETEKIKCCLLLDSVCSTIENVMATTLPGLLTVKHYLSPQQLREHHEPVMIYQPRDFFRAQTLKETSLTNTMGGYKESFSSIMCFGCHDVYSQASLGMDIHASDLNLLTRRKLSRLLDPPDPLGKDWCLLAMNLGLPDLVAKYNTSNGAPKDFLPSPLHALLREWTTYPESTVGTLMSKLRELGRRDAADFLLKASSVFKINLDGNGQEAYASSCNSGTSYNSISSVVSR
Chain of LIMK1 (P53667 whole entry): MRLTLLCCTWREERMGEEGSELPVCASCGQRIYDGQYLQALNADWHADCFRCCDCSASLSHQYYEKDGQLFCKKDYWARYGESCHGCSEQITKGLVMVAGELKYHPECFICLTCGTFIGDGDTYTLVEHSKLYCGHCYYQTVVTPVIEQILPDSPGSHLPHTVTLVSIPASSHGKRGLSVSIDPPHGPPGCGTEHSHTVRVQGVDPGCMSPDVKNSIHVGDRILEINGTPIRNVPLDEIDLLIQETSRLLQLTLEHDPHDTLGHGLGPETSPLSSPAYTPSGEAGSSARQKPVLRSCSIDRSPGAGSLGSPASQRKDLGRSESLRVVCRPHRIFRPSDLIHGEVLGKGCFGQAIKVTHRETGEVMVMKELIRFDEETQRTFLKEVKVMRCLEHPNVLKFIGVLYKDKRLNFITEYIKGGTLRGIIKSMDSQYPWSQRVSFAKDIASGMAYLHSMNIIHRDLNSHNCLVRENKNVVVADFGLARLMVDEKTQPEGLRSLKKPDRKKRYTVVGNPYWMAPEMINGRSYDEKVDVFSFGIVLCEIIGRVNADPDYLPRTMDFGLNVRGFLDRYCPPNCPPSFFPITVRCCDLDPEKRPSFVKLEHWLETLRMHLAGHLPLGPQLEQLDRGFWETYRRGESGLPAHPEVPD
Chain of JAK2 (O60674 whole entry): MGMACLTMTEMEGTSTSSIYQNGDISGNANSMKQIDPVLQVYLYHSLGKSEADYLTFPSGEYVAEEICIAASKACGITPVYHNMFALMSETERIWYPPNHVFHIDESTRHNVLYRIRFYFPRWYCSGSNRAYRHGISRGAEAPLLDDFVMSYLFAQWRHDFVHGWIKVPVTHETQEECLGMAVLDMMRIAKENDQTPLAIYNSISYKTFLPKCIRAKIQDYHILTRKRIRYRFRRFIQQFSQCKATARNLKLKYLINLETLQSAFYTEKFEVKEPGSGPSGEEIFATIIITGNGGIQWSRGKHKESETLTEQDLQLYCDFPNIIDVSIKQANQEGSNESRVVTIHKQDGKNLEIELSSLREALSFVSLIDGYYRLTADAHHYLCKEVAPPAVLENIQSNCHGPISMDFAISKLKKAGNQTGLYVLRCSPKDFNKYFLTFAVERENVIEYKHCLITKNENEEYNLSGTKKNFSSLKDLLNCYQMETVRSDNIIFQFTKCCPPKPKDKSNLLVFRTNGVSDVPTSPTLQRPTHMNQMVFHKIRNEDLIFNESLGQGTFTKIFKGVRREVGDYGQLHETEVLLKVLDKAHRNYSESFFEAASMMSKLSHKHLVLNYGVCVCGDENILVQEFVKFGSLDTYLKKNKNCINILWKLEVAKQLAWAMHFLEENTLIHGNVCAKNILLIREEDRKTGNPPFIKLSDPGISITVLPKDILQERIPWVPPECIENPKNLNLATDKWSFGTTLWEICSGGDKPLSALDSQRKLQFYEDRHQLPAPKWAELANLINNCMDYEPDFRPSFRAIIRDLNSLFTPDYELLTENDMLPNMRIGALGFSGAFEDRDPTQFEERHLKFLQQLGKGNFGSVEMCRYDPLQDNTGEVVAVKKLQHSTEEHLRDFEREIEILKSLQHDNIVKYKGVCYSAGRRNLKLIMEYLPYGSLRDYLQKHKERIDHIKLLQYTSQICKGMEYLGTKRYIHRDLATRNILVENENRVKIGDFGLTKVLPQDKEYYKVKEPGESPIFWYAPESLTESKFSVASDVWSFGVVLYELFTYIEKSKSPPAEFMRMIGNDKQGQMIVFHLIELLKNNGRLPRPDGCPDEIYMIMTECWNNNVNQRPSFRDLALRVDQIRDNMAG
T3 sequence (O75582 whole entry): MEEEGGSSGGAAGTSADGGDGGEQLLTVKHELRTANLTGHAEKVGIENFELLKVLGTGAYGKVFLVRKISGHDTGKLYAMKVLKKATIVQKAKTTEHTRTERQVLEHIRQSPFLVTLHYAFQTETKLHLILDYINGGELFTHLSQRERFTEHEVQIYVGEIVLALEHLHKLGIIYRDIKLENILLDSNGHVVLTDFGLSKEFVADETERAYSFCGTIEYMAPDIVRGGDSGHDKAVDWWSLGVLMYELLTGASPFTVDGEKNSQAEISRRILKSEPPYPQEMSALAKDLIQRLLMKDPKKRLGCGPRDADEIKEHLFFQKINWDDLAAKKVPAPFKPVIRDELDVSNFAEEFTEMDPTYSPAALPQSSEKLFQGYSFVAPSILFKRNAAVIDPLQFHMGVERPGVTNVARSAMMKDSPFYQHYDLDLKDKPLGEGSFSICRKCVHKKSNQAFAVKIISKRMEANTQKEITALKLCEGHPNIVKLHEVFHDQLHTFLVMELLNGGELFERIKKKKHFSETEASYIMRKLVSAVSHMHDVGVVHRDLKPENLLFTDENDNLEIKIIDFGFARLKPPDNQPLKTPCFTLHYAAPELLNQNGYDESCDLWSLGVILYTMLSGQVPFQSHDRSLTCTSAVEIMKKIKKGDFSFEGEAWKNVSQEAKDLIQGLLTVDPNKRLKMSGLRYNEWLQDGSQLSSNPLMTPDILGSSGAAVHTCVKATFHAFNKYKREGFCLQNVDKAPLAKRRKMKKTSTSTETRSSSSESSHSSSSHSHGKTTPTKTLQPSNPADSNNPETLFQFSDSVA
T4 sequence (O75716 whole entry): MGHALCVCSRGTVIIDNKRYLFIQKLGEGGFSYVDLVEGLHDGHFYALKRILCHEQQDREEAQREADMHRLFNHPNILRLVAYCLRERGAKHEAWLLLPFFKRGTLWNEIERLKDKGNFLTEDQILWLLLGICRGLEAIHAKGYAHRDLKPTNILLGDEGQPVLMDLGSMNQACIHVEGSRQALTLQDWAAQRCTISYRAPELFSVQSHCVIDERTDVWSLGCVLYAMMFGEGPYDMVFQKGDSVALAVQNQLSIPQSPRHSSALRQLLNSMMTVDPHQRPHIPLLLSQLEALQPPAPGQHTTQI

Row | SMILES | remaining activity at 0.5 µM (DAPK1; DAPK1, inhibitor at 500 nM) | remaining activity at 0.5 µM (IRAK4; IRAK4, inhibitor at 500 nM) | remaining activity at 0.5 µM (JAK2; JAK2, inhibitor at 500 nM) | remaining activity at 0.5 µM (LIMK1; LIMK1, inhibitor at 500 nM) | remaining activity at 0.5 µM (MERTK; MERTK, inhibitor at 500 nM) | remaining activity at 0.5 µM (RPS6KA5; RPS6KA5, inhibitor at 500 nM) | remaining activity at 0.5 µM (STK16; STK16, inhibitor at 500 nM) | remaining activity at 0.5 µM (STK4; STK4, inhibitor at 500 nM) | remaining activity at 0.5 µM (DAPK1) | remaining activity at 0.5 µM (IRAK4) | remaining activity at 0.5 µM (LIMK1) | remaining activity at 0.5 µM (MERTK) | remaining activity at 0.5 µM (RPS6KA5) | remaining activity at 0.5 µM (STK16) | remaining activity at 0.5 µM (STK4) | remaining activity at 0.5 µM (JAK2)
1 | COC1C(N(C)C(=O)C(N)Cc2cn(C(=O)OC(C)(C)C)c3ccccc23)CC2OC1(C)n1c3ccccc3c3c4c(c5c6ccccc6n2c5c31)C(=O)NC4 (stereo not drawn) [Compound 2] | 107% | 101% | 70% | 103% | 96.8% | 61.4% | 105% | 72.8% |  |  |  |  |  |  |  | 
2 | CN[C@@H]1C[C@H]2O[C@@](C)([C@@H]1OC)n1c3ccccc3c3c4c(c5c6ccccc6n2c5c31)C(=O)NC4 [STU, staurosporine, reference compound] |  |  | 0.8% |  |  |  |  |  | 1.9% | 1.6% | -0.6% | 1.1% | 1.1% | 52.5% | 5.5% | 
3 | COC1C(N(C)C(=O)C(N)Cc2ccc(OC(C)(C)C)cc2)CC2OC1(C)n1c3ccccc3c3c4c(c5c6ccccc6n2c5c31)C(=O)NC4 (stereo not drawn) [Compound 4] | 96.4% | 87.4% | 36.4% | 66.9% | 88.1% | 1.6% | 99.8% | 12% |  |  |  |  |  |  |  | 
4 | COC1C(N(C)C(=O)C(N)CCC(=O)OC(C)(C)C)CC2OC1(C)n1c3ccccc3c3c4c(c5c6ccccc6n2c5c31)C(=O)NC4 (stereo not drawn) [Compound 6] | 101% | 63.5% | 39.6% | 39.5% | 85.2% | 3.3% | 94% | 6% |  |  |  |  |  |  |  | 
5 | COC1C(N(C)CCOc2cccc([N+](=O)[O-])c2)CC2OC1(C)n1c3ccccc3c3c4c(c5c6ccccc6n2c5c31)C(=O)NC4 (stereo not drawn) [Compound 8] |  |  |  |  |  |  |  |  | 89.8% | 27.9% | 49.9% | 63.1% | 7.4% | 94% | 2.7% | 5.2%
6 | COC1C(N(C)C(=O)C(N)Cc2ccc(O)cc2)CC2OC1(C)n1c3ccccc3c3c4c(c5c6ccccc6n2c5c31)C(=O)NC4 (stereo not drawn) [Compound 5] | 105% | 85.9% | 19.4% | 46.9% | 69.2% | 2.4% | 86.7% | 5.5% |  |  |  |  |  |  |  | 
7 | COC1C(N(C)C(=O)C(N)CCC(=O)O)CC2OC1(C)n1c3ccccc3c3c4c(c5c6ccccc6n2c5c31)C(=O)NC4 (stereo not drawn) [Compound 7] | 26.2% | 46.8% | 1.5% | 1.4% | 40% | 1.8% | 51.6% | 1.9% |  |  |  |  |  |  |  | 
8 | COC1C(N(C)Cc2ccc(-c3ccccc3)cc2)CC2OC1(C)n1c3ccccc3c3c4c(c5c6ccccc6n2c5c31)C(=O)NC4 (stereo not drawn) [Compound 9] | 116% | 26.6% | 4.4% | 56.5% | 52.3% | 5.2% | 103% | 1.5% |  |  |  |  |  |  |  | 
9 | COC1C(N(C)C(=O)C(N)Cc2c[nH]cn2)CC2OC1(C)n1c3ccccc3c3c4c(c5c6ccccc6n2c5c31)C(=O)NC4 (stereo not drawn) [Compound 1] | 26% | 33.4% | 4.4% | 18.8% | 26.7% | 1.7% | 59% | 1.8% |  |  |  |  |  |  |  | 
